Earlier results on 1 compound are cited in patent US11357858B2, “Pharmaceutical compositions for the treatment of postoperative pain” (FIDIA FARMACEUTICI S.P.A., priority 2018, dated 2022).

Structures can show the parent of a compound that is named as a salt.

The conditions of this data set: in vivo.

Consider `CCCN1CCCC[C@H]1C(=O)Nc1c(C)cccc1C` [ropivacaine HCl], for which the “maximum dose which can be administered without the onset of side effects” value is on record as “about 2.5 mg/kg”.
